The kinase profiling compilation of Christmann-Franck et al. (2016)

Assays:
Test in all cases: KINOMEscan competition binding
Conditions in all cases: compound 10.0 µM
[1] = target: ANKK1 (human) (UniProt Q8NFD2)
[2] = target: CASK (human) (UniProt O14936)
[3] = target: CDK18 (human) (UniProt Q07002)
[4] = target: CDK4 CCND3 (human) (UniProt P11802+P30281)
[5] = target: DAPK2 (human) (UniProt Q9UIK4)
[6] = target: DCLK2 (human) (UniProt Q8N568)
[7] = target: DCLK3 (human) (UniProt Q9C098)
[8] = target: DDR2 (human) (UniProt Q16832)
[9] = target: DSTYK (human) (UniProt Q6XUX3)
[10] = target: EPHA5 (human) (UniProt P54756)
[11] = target: EPHA6 (human) (UniProt Q9UF33)
[12] = target: EPHB1 (human) (UniProt P54762)
Sequence of EPHB1 (human) (P54762 whole entry, looked up): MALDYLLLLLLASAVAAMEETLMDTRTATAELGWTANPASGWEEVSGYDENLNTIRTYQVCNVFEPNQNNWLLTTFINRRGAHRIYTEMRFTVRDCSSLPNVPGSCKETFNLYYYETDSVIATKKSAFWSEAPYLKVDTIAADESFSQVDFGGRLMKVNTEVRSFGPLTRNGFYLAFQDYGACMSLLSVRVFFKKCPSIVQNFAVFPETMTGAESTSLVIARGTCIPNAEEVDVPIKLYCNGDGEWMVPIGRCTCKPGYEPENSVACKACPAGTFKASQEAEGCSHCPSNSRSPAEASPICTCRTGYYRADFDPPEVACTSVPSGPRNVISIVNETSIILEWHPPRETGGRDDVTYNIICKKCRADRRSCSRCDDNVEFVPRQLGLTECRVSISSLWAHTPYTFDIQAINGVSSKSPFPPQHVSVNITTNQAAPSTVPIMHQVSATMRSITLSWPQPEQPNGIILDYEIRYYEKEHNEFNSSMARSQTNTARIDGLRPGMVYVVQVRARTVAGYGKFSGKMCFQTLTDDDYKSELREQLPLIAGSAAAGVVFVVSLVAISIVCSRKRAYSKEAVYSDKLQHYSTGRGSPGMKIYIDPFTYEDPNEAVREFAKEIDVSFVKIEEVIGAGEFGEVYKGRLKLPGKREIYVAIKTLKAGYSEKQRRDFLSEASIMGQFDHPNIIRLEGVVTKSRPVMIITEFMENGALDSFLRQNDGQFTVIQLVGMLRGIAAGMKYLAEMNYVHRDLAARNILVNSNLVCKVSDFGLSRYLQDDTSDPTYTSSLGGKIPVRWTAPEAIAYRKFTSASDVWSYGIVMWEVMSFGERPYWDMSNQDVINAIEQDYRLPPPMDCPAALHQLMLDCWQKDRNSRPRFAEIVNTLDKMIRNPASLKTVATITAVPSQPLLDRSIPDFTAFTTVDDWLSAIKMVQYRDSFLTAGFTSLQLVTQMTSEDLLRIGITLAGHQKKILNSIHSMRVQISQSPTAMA

[13] = target: EPHB3 (human) (UniProt P54753)
[14] = target: FES (human) (UniProt P07332)
[15] = target: FGR (human) (UniProt P09769)
[16] = target: INSRR (human) (UniProt P14616)
[17] = target: IRAK1 (human) (UniProt P51617)
[18] = target: JAK1 JH2 pseudokinase (human) (UniProt P23458)
[19] = target: LIMK2 (human) (UniProt P53671)
[20] = target: LTK (human) (UniProt P29376)
[21] = target: MAP2K5 (human) (UniProt Q13163)
[22] = target: MAP3K1 (human) (UniProt Q13233)
[23] = target: MAP3K3 (human) (UniProt Q99759)
[24] = target: MAP3K4 (human) (UniProt Q9Y6R4)
Sequence of MAP3K4 (human) (Q9Y6R4 whole entry, looked up): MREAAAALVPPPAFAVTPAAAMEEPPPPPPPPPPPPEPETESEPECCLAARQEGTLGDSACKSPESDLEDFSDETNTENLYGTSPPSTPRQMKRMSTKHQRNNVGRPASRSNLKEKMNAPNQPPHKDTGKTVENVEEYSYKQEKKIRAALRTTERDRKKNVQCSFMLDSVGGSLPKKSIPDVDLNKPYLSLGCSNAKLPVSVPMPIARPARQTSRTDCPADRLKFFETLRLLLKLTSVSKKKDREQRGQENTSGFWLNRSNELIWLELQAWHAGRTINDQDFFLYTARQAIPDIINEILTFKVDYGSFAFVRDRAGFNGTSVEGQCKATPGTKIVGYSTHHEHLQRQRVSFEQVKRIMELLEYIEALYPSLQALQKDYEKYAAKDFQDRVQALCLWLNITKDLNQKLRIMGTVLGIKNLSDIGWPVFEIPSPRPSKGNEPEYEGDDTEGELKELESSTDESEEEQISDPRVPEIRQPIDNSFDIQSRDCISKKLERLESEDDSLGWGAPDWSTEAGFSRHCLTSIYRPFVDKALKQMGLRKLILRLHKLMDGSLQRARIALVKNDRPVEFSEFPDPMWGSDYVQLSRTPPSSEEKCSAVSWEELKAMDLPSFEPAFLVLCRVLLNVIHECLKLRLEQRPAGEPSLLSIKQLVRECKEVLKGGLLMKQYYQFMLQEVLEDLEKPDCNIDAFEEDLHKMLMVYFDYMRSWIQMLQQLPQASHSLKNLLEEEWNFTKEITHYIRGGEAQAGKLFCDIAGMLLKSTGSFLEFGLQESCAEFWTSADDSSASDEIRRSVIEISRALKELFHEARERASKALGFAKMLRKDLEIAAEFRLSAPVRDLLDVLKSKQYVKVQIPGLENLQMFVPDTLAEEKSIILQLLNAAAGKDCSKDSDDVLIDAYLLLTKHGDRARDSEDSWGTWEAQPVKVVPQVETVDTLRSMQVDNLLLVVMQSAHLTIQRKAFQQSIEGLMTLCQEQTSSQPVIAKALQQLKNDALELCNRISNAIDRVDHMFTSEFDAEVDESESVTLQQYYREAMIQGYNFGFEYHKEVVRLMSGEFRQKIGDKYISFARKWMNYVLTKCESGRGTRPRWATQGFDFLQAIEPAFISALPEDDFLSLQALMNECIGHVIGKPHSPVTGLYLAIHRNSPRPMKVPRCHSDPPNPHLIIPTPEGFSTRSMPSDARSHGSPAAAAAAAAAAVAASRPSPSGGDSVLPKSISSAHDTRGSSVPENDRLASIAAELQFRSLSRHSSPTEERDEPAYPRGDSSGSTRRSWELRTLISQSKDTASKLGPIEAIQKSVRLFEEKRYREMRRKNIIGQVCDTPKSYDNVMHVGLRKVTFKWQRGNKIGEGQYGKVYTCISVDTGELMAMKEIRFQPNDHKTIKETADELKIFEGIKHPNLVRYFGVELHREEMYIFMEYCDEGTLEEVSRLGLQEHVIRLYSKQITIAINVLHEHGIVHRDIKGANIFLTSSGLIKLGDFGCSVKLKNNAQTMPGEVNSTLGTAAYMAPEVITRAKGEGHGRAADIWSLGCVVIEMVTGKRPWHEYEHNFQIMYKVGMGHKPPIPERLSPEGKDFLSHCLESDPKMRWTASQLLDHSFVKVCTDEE

[25] = target: MAP3K7 (human) (UniProt O43318)
Sequence of MAP3K7 (human) (O43318 whole entry, looked up): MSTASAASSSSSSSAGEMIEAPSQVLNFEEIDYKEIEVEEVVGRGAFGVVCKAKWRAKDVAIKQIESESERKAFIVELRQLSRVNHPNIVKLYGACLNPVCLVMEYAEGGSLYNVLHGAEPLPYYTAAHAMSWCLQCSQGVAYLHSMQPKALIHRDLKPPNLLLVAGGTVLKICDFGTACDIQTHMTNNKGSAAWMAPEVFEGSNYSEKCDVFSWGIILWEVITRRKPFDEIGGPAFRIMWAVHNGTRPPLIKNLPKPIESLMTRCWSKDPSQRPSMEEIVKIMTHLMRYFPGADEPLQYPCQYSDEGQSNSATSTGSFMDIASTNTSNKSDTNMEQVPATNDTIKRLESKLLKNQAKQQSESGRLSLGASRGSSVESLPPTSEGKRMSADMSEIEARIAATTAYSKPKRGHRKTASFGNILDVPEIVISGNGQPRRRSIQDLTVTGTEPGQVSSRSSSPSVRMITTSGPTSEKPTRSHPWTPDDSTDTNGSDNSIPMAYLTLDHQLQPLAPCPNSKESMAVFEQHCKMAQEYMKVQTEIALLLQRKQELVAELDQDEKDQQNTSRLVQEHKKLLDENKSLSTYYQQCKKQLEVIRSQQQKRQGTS

[26] = target: MAP4K2 (human) (UniProt Q12851)
[27] = target: MARK2 (human) (UniProt Q7KZI7)
[28] = target: NEK2 (human) (UniProt P51955)
[29] = target: PDGFRB (human) (UniProt P09619)
[30] = target: PHKG2 (human) (UniProt P15735)
[31] = target: PKN2 (human) (UniProt Q16513)
[32] = target: PRKCI (human) (UniProt P41743)
[33] = target: PRKCQ (human) (UniProt Q04759)
Sequence of PRKCQ (human) (Q04759 whole entry, looked up): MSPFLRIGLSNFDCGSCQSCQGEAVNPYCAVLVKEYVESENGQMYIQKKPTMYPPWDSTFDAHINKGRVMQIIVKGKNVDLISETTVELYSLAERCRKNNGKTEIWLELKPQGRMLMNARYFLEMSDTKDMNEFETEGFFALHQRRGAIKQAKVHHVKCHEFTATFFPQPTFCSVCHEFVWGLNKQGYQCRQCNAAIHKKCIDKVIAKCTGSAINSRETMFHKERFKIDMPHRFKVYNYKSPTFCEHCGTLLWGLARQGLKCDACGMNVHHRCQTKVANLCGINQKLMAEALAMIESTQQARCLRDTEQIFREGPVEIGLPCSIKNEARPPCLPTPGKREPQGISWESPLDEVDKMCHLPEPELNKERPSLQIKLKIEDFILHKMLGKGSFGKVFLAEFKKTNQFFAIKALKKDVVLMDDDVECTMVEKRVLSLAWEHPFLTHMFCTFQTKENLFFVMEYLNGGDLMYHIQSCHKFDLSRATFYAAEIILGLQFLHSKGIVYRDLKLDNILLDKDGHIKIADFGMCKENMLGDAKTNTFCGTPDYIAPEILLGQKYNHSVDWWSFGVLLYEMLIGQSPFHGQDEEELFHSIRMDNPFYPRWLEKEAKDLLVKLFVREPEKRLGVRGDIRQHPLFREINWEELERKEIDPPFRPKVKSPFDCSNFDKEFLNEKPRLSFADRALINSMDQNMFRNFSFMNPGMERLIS

[34] = target: RIOK2 (human) (UniProt Q9BVS4)
Sequence of RIOK2 (human) (Q9BVS4 whole entry, looked up): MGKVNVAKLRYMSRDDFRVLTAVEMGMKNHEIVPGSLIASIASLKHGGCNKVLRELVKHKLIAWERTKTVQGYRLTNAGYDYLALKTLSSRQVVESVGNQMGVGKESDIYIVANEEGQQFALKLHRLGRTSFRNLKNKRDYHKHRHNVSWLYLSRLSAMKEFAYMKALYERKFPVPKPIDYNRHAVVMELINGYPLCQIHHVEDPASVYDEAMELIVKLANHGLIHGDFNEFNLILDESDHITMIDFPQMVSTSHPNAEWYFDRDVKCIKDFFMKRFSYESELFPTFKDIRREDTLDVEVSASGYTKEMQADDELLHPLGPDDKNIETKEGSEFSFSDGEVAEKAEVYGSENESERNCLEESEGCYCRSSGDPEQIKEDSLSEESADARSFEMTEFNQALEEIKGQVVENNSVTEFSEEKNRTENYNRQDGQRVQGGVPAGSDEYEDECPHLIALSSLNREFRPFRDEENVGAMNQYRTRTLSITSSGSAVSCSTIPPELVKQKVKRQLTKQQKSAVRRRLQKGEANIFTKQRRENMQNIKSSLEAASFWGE

[35] = target: RPS6KA4 KD1 (human) (UniProt O75676)
[36] = target: SIK3 (human) (UniProt Q9Y2K2)
[37] = target: STK17A (human) (UniProt Q9UEE5)
[38] = target: WEE1 (human) (UniProt P30291)
[39] = target: ZAP70 (human) (UniProt P43403)
[40] = target: ROCK1 (human) (UniProt Q13464)

Sequence of DCLK3 (human) (Q9C098 whole entry, looked up): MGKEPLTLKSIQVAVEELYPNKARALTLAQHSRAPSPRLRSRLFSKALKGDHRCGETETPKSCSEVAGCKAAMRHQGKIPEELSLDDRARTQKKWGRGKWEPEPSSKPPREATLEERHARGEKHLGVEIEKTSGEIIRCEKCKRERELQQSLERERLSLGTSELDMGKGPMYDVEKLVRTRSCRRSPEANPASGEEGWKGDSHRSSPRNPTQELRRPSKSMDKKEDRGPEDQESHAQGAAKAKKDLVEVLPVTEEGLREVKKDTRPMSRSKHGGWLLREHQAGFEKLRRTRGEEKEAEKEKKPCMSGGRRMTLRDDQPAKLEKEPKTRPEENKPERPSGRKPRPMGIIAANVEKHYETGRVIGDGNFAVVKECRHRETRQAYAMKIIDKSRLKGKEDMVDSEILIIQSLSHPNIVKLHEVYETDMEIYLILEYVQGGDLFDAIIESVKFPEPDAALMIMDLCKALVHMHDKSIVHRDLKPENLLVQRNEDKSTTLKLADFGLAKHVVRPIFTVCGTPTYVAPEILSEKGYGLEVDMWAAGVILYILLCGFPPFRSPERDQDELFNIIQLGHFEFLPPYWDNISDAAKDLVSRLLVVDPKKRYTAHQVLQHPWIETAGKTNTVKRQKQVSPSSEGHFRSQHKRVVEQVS

Compound | kinase still bound, per cent of control [1] [%] | kinase still bound, per cent of control [3] [%] | kinase still bound, per cent of control [5] [%] | kinase still bound, per cent of control [6] [%] | kinase still bound, per cent of control [7] [%] | kinase still bound, per cent of control [8] [%] | kinase still bound, per cent of control [10] [%] | kinase still bound, per cent of control [11] [%] | kinase still bound, per cent of control [12] [%] | kinase still bound, per cent of control [13] [%] | kinase still bound, per cent of control [15] [%] | kinase still bound, per cent of control [16] [%] | kinase still bound, per cent of control [17] [%] | kinase still bound, per cent of control [18] [%] | kinase still bound, per cent of control [19] [%] | kinase still bound, per cent of control [20] [%] | kinase still bound, per cent of control [22] [%] | kinase still bound, per cent of control [24] [%] | kinase still bound, per cent of control [25] [%] | kinase still bound, per cent of control [27] [%] | also measured
NC(=O)Nc1cc(-c2cccc(F)c2)sc1C(=O)N[C@@H]1CCCNC1 | 1.2 | 100 | 5.4 | 2.4 | 56 | 0 | 4.8 | 8.2 | 1.6 | 95 | 0.2 | 22 | 0 | 2.5 | 88 | 0.3 | 51 | 42 | 0 | 0.9 | kinase still bound, per cent of control [2]: 92%; kinase still bound, per cent of control [4]: 92%; kinase still bound, per cent of control [9]: 1.3%; kinase still bound, per cent of control [14]: 0.65%; kinase still bound, per cent of control [21]: 0.05%; kinase still bound, per cent of control [23]: 0%; kinase still bound, per cent of control [26]: 0%; kinase still bound, per cent of control [28]: 75%; kinase still bound, per cent of control [29]: 0%; kinase still bound, per cent of control [30]: 1.6%; kinase still bound, per cent of control [31]: 38%; kinase still bound, per cent of control [32]: 11%; kinase still bound, per cent of control [33]: 0%; kinase still bound, per cent of control [34]: 48%; kinase still bound, per cent of control [35]: 0.2%; kinase still bound, per cent of control [36]: 6.2%; kinase still bound, per cent of control [37]: 0.55%; kinase still bound, per cent of control [38]: 50%; kinase still bound, per cent of control [39]: 0%
COc1cc(N2CCN(C)CC2)ccc1Nc1ncc2c(n1)N(C)c1ccccc1C(=O)N2C | 100 | 100 | 100 | 0.45 | 16 | 100 | 100 | 100 | 100 | 100 | 100 | 100 | 100 | 100 | 100 | 100 | 100 | 100 | 100 | 100 | kinase still bound, per cent of control [14]: 100%; kinase still bound, per cent of control [23]: 100%; kinase still bound, per cent of control [26]: 100%; kinase still bound, per cent of control [28]: 100%; kinase still bound, per cent of control [29]: 100%; kinase still bound, per cent of control [30]: 29%; kinase still bound, per cent of control [31]: 100%; kinase still bound, per cent of control [33]: 100%; kinase still bound, per cent of control [34]: 100%; kinase still bound, per cent of control [40]: 100%; kinase still bound, per cent of control [35]: 100%; kinase still bound, per cent of control [36]: 100%; kinase still bound, per cent of control [37]: 100%; kinase still bound, per cent of control [38]: 100%; kinase still bound, per cent of control [39]: 100%
C[C@@H](Oc1cc(-c2cnn(C3CCNCC3)c2)cnc1N)c1c(Cl)ccc(F)c1Cl | 4.2 | 94 | 97 | 1.2 | 42 | 0 | 1.8 | 0.7 | 0.15 | 100 | 6.8 | 0.25 | 0 | 1.8 | 4.6 | 0.3 | 4.4 | 34 | 8.2 | 20 | kinase still bound, per cent of control [4]: 39%; kinase still bound, per cent of control [9]: 1.6%; kinase still bound, per cent of control [21]: 54%; kinase still bound, per cent of control [28]: 81%; kinase still bound, per cent of control [29]: 44%; kinase still bound, per cent of control [30]: 32%; kinase still bound, per cent of control [31]: 26%; kinase still bound, per cent of control [32]: 35%; kinase still bound, per cent of control [33]: 88%; kinase still bound, per cent of control [34]: 56%; kinase still bound, per cent of control [40]: 4%; kinase still bound, per cent of control [35]: 100%; kinase still bound, per cent of control [37]: 100%; kinase still bound, per cent of control [38]: 100%; kinase still bound, per cent of control [39]: 29%
CS(=O)(=O)N1CCN(Cc2cc3nc(-c4cccc5[nH]ncc45)nc(N4CCOCC4)c3s2)CC1 | 100 | 100 | 100 | 100 | 100 | 100 | 100 | 100 | 100 | 100 | 100 | 100 | 100 | 100 | 100 | 100 | 100 | 100 | 100 | 100 | kinase still bound, per cent of control [14]: 100%; kinase still bound, per cent of control [23]: 100%; kinase still bound, per cent of control [26]: 100%; kinase still bound, per cent of control [28]: 100%; kinase still bound, per cent of control [29]: 100%; kinase still bound, per cent of control [30]: 100%; kinase still bound, per cent of control [31]: 100%; kinase still bound, per cent of control [33]: 100%; kinase still bound, per cent of control [34]: 100%; kinase still bound, per cent of control [40]: 100%; kinase still bound, per cent of control [35]: 100%; kinase still bound, per cent of control [36]: 100%; kinase still bound, per cent of control [37]: 100%; kinase still bound, per cent of control [38]: 100%; kinase still bound, per cent of control [39]: 100%
